This note sets out measurements from PubChem BioAssay (NCI).

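Cells were grown in 96-well plates and exposed to each compound for 48 hours at five concentrations; endpoints were interpolated linearly between bracketing concentrations, or set to the highest concentration if not reached. GI50: concentration for 50% inhibition of growth. TGI: concentration producing complete growth inhibition.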

Test systems include ACHN renal; HOP-62 NSCLC; HOP-92 NSCLC; K-562 leukemia; KM12 colon; LOX IMVI melanoma; MALME-3M melanoma; MCF7 breast; NCI-H23 lung; SF-295 CNS.
Holding throughout (assay): DTP human tumour cell line panel, 48 h

As usually defined, the GI50 is the concentration that inhibits growth by half. In general, TGI refers to the concentration giving total growth inhibition. Higher therefore signals less potent growth arrest. As to `COc1ccc(-c2cnc(-c3ccc(F)cc3)[nH]2)cc1`, the GI50 was 15.2 µM in the assay with ACHN renal; 8.25 µM in the assay on HOP-62 NSCLC; 10.3 µM in the assay with K-562 leukemia; 1.7 µM in the assay with KM12 colon; 5.49 µM with LOX IMVI melanoma; 6.12 µM with MALME-3M melanoma. For the same molecule, the GI50 in the assay with MCF7 breast was 1.95 µM; with NCI-H23 lung, 10.6 µM; with SF-295 CNS, 1.54 µM. In addition, the TGI was 30.5 µM with ACHN renal; 21.4 µM in the assay on HOP-62 NSCLC; 13.1 µM in the assay with HOP-92 NSCLC; above 55.1 µM with K-562 leukemia; 3.27 µM in the assay with KM12 colon; 10.8 µM in the assay with LOX IMVI melanoma. The concentration for total growth inhibition (TGI) in the assay with MALME-3M melanoma turned out to be 22.4 µM; in the assay with MCF7 breast, 6.93 µM; in the assay on NCI-H23 lung, 46.6 µM; in the assay on SF-295 CNS it was 3.43 µM.
Take `N#CC1C(=N)Cc2ccccc2-c2ccccc21` (stereo unspecified): the GI50 in the assay with ACHN renal is 12.8 µM; in the assay with HOP-62 NSCLC, 4.59 µM; in the assay on HOP-92 NSCLC, 10 µM; in the assay on K-562 leukemia, 2.71 µM; with KM12 colon, 3.43 µM; in the assay on LOX IMVI melanoma, 6.26 µM. Moreover, the GI50 is 4.2 µM in the assay on MALME-3M melanoma, 4.2 µM in the assay with MCF7 breast, 11.2 µM in the assay with NCI-H23 lung and 2.21 µM in the assay on SF-295 CNS. The TGI in the assay on ACHN renal was 82.5 µM; in the assay on HOP-62 NSCLC it was 56.2 µM; with HOP-92 NSCLC, 36.6 µM; in the assay with K-562 leukemia it was 89.4 µM; in the assay with KM12 colon it was 16.1 µM; in the assay on LOX IMVI melanoma, 33.5 µM. Besides, the TGI in the assay with MALME-3M melanoma turned out to be 27.4 µM; in the assay with MCF7 breast, 80.1 µM; in the assay on NCI-H23 lung, 68.8 µM; in the assay with SF-295 CNS, 9.36 µM.
With `N#C/C(=C/C=C(\Cl)c1ccc(Cl)cc1)C(N)=O`, the GI50 was 2.37 µM in the assay with ACHN renal; 2.36 µM in the assay with HOP-62 NSCLC; 2.47 µM in the assay on HOP-92 NSCLC; 1.47 µM in the assay with K-562 leukemia; 2.1 µM in the assay on KM12 colon; 0.976 µM in the assay with LOX IMVI melanoma. Further, the GI50 is 1.48 µM with MALME-3M melanoma, 4.91 µM in the assay on MCF7 breast, 2.4 µM in the assay on NCI-H23 lung and 1.65 µM with SF-295 CNS. Moreover, the TGI in the assay on ACHN renal was 6.39 µM; in the assay on HOP-62 NSCLC, 4.33 µM; in the assay on HOP-92 NSCLC it was 9.72 µM; in the assay on K-562 leukemia, above 100 µM; with KM12 colon, 4.69 µM; with LOX IMVI melanoma, 6.91 µM. Further, the TGI is 3.55 µM in the assay with MALME-3M melanoma, above 100 µM with MCF7 breast, 8.83 µM in the assay on NCI-H23 lung and 3.45 µM in the assay on SF-295 CNS.
In the case of `Cc1cc(O)c2c(c1)C(=O)c1cc(O)cc(O)c1C2=O`, the TGI in the assay with ACHN renal is 73.3 µM; in the assay on HOP-62 NSCLC, 44.3 µM; with HOP-92 NSCLC it was 56.8 µM; in the assay with K-562 leukemia, above 100 µM; in the assay with KM12 colon it was above 57.5 µM; in the assay with LOX IMVI melanoma, 47.3 µM. Further, the TGI in the assay with MALME-3M melanoma was 50.6 µM; with MCF7 breast, above 100 µM; in the assay on NCI-H23 lung, above 63.6 µM; in the assay on SF-295 CNS it was above 83.1 µM. The GI50 with K-562 leukemia was 28 µM; in the assay with MCF7 breast it was 27.7 µM.
For `O=C(Nc1cnn2ccc(N3CCC[C@@H]3c3cc(F)ccc3F)nc12)N1CC[C@H](O)C1`, the GI50 was above 100 µM in the assay with ACHN renal; above 100 µM in the assay with HOP-62 NSCLC; above 100 µM in the assay with HOP-92 NSCLC; above 100 µM in the assay with K-562 leukemia; 0.0122 µM with KM12 colon; above 100 µM with LOX IMVI melanoma. Besides, the GI50 in the assay on MALME-3M melanoma, in the assay on MCF7 breast, in the assay on NCI-H23 lung and with SF-295 CNS was above 100 µM in each case. The TGI with ACHN renal, with HOP-62 NSCLC, in the assay with HOP-92 NSCLC, in the assay with K-562 leukemia, with KM12 colon and in the assay on LOX IMVI melanoma was above 100 µM throughout. In addition, the TGI in the assay with MALME-3M melanoma, in the assay with MCF7 breast, in the assay on NCI-H23 lung and in the assay with SF-295 CNS was above 100 µM in each case.
For the molecule `C=C(CNCCc1ccc(O)cc1)[C@@H]1CC[C@]2(CO)CC[C@]3(C)[C@H](CC[C@@H]4[C@@]5(C)CCC(=O)C(C)(C)[C@@H]5CC[C@]43C)[C@@H]12`, the GI50 with ACHN renal is 1.61 µM; in the assay with HOP-62 NSCLC, 1.58 µM; with HOP-92 NSCLC it was 1.01 µM; in the assay on K-562 leukemia it was 1.86 µM; with KM12 colon it was 1.82 µM; in the assay on LOX IMVI melanoma, 1.6 µM. Moreover, the GI50 in the assay with MALME-3M melanoma was 1.65 µM; in the assay on MCF7 breast, 1.87 µM; in the assay on NCI-H23 lung, 1.69 µM; in the assay with SF-295 CNS, 1.74 µM. Also, the TGI is 2.96 µM in the assay with ACHN renal; 3.11 µM with HOP-62 NSCLC; 2.26 µM in the assay with HOP-92 NSCLC; 4.72 µM in the assay with K-562 leukemia; 3.61 µM in the assay on KM12 colon; 2.97 µM in the assay on LOX IMVI melanoma. In addition, the TGI in the assay on MALME-3M melanoma stood at 3.25 µM; with MCF7 breast, 3.84 µM; in the assay on NCI-H23 lung, 3.26 µM; in the assay with SF-295 CNS, 3.22 µM.
